Assay results: patent publication US5190741A, “Agents for diagnosing and treating melanomas, aromatic halogenated derivatives usable as such agents and their preparation” (Institut National de la Sante et de la Recherche Medicale …, priority 1989, dated 1993)
Read-outs that look alike come from different tables or passages of the source.

How the values were obtained:
[1] = test system: Beu melanic human melanoma; test: Autoradiograms, nu/nu SSCUP nude mice bearing Beu; type: in vivo
Procedure: The autoradiograms are carried out in mice bearing grafted melanomas:
b. nu/nu SSCUP nudes bearing heterotransplants of melanic (Beu) or amelanic (Dau) human melanomas).
The animals bearing grafted tumors receive the labelled compounds in the form of the hydrochloride in saline solution (3.7 to 5×10^5 Bq/animal) in a caudal vein. At different time intervals after the administration of the compounds (from 15 minutes to 24 hours) the mice are anesthetized with ether and plunged into liquid nitrogen.
30 μm sections, parallel to a sagittal plane, are prepared in a freezing microtome (TS 260, SLEE) according to the protocol described by Ullberg.

[2] = LD50 determination, i.v. (Karber and Behrens); conditions: mouse, in vivo, iv
Source text: (§1) The determination of the LD50 is made in the mouse after i.v. injection of the molecules according to the methodology described by Karber and Behrens.
(§2) 6 weeks old OF 1 male mice

[3] = test system: 6 weeks old OF 1 male mice; test: LD50 determination, i.v. (Karber and Behrens); conditions: mouse, in vivo, iv
Source text: as §1, §2

[4] = Tissue distribution in Swiss nu/nu SSCUP mice bearing Dau; type: in vivo, human; conditions: mouse, iv, 3 umol/animal
Procedure: The study of the tissue distribution of the ^125 I labelled compounds was performed in mice bearing grafted melanomas (cf. autoradiograms above). […] The animals are sacrificed at different time intervals of 1 to 24 hours after the injection. The blood is collected and the principal organs are excised. Aliquots are weighed and the radioactivity of the samples is measured in a […] 1191 counter (analytic tracer). The counting yield for iodine 125 is 60%. The results are expressed: as a percentage of the injected dose bound per g of tissue (% ID/g); in the form of the ratios [formula] This ratio reflects more precisely the selectivity of a molecule for an organ (tables 2, 4, 6, 8, 10 and 12).

[5] = intestine, read-out: intestine % ID/g
[6] = kidney, read-out: kidney % ID/g

Which “darkening of the film at the tumor” value ([1]; 1 to 4 h after i.v.) does the source give for `CCN(CC)CCNC(=O)c1ccc(I)cc1` [Derivative A, N-(2-diethylaminoethyl) 4-iodo benzamide] here?
Its value is “Identical images”.

What about the “tumor visibility on autoradiogram” value ([1]; 24 h after i.v.) of the same compound?
The value was “we can no longer see darkening of the film”.

What about the LD50 [2] of the same compound?
Its LD50 is 125 mg/kg.

What about the “LD 0” value [3] of the same compound?
Its value is 75 mg/kg.

What about the “LD 100” value [3] of the same compound?
Its value is 150 mg/kg.

And the tissue uptake at 1 h ([4]; blood, read-out: blood % ID/g)?
Its tissue uptake at 1 h is 0.89 %ID/g.

What about the tissue uptake at 2 h ([4]; blood, read-out: blood % ID/g) of the same compound?
The tissue uptake at 2 h was 0.52 %ID/g.

And the tissue uptake at 4 h ([4]; blood, read-out: blood % ID/g)?
Its tissue uptake at 4 h is 0.29 %ID/g.

What about the tissue uptake at 6 h ([4]; blood, read-out: blood % ID/g) of the same compound?
The tissue uptake at 6 h was 0.23 %ID/g.

And the tissue uptake at 24 h ([4]; blood, read-out: blood % ID/g)?
Its tissue uptake at 24 h is 0.008 %ID/g.

What about the tissue uptake at 8 h ([4]; blood, read-out: blood % ID/g) of the same compound?
Its tissue uptake at 8 h is 0.14 %ID/g.

What about the tissue uptake at 12 h ([4]; blood, read-out: blood % ID/g) of the same compound?
Its tissue uptake at 12 h is 0.06 %ID/g.

And the tissue uptake at 1 h ([4]; brain, read-out: brain % ID/g)?
Its tissue uptake at 1 h is 1.4 %ID/g.

What about the tissue uptake at 2 h ([4]; brain, read-out: brain % ID/g) of the same compound?
The tissue uptake at 2 h was 0.99 %ID/g.

What about the tissue uptake at 4 h ([4]; brain, read-out: brain % ID/g) of the same compound?
Its tissue uptake at 4 h is 0.51 %ID/g.

What about the tissue uptake at 6 h ([4]; brain, read-out: brain % ID/g) of the same compound?
Its tissue uptake at 6 h is 0.2 %ID/g.

What about the tissue uptake at 24 h ([4]; brain, read-out: brain % ID/g) of the same compound?
The tissue uptake at 24 h was 0.002 %ID/g.

What about the tissue uptake at 8 h ([4]; brain, read-out: brain % ID/g) of the same compound?
Its tissue uptake at 8 h is 0.12 %ID/g.

And the tissue uptake at 12 h ([4]; brain, read-out: brain % ID/g)?
Its tissue uptake at 12 h is 0.02 %ID/g.

And the tissue uptake at 1 h ([4]; eye, read-out: eye % ID/g)?
Its tissue uptake at 1 h is 0.68 %ID/g.

And the tissue uptake at 2 h ([4]; eye, read-out: eye % ID/g)?
Its tissue uptake at 2 h is 0.54 %ID/g.

What about the tissue uptake at 4 h ([4]; eye, read-out: eye % ID/g) of the same compound?
The tissue uptake at 4 h was 0.31 %ID/g.

And the tissue uptake at 6 h ([4]; eye, read-out: eye % ID/g)?
Its tissue uptake at 6 h is 0.16 %ID/g.

What about the tissue uptake at 24 h ([4]; eye, read-out: eye % ID/g) of the same compound?
Its tissue uptake at 24 h is 0.02 %ID/g.

What about the tissue uptake at 8 h ([4]; eye, read-out: eye % ID/g) of the same compound?
Its tissue uptake at 8 h is 0.1 %ID/g.

And the tissue uptake at 12 h ([4]; eye, read-out: eye % ID/g)?
The tissue uptake at 12 h was 0.04 %ID/g.

What about the tissue uptake at 1 h [4, 5] of the same compound?
The tissue uptake at 1 h was 3.74 %ID/g.

And the tissue uptake at 2 h [4, 5]?
The tissue uptake at 2 h was 2.67 %ID/g.

What about the tissue uptake at 4 h [4, 5] of the same compound?
Its tissue uptake at 4 h is 1.1 %ID/g.

What about the tissue uptake at 6 h [4, 5] of the same compound?
Its tissue uptake at 6 h is 0.42 %ID/g.

What about the tissue uptake at 8 h [4, 5] of the same compound?
The tissue uptake at 8 h was 0.38 %ID/g.

And the tissue uptake at 12 h [4, 5]?
Its tissue uptake at 12 h is 0.27 %ID/g.

And the tissue uptake at 24 h [4, 5]?
The tissue uptake at 24 h was 0.01 %ID/g.

And the tissue uptake at 1 h [4, 6]?
Its tissue uptake at 1 h is 8.39 %ID/g.

What about the tissue uptake at 2 h [4, 6] of the same compound?
The tissue uptake at 2 h was 5.12 %ID/g.

And the tissue uptake at 4 h [4, 6]?
The tissue uptake at 4 h was 2.15 %ID/g.

And the tissue uptake at 6 h [4, 6]?
Its tissue uptake at 6 h is 0.78 %ID/g.

And the tissue uptake at 24 h [4, 6]?
The tissue uptake at 24 h was 0.03 %ID/g.

And the tissue uptake at 8 h [4, 6]?
The tissue uptake at 8 h was 0.32 %ID/g.

What about the tissue uptake at 12 h [4, 6] of the same compound?
Its tissue uptake at 12 h is 0.14 %ID/g.

What about the tissue uptake at 1 h ([4]; liver, read-out: liver % ID/g) of the same compound?
Its tissue uptake at 1 h is 5.68 %ID/g.

What about the tissue uptake at 2 h ([4]; liver, read-out: liver % ID/g) of the same compound?
Its tissue uptake at 2 h is 3.35 %ID/g.

What about the tissue uptake at 4 h ([4]; liver, read-out: liver % ID/g) of the same compound?
The tissue uptake at 4 h was 2.1 %ID/g.

What about the tissue uptake at 6 h ([4]; liver, read-out: liver % ID/g) of the same compound?
Its tissue uptake at 6 h is 1.1 %ID/g.

And the tissue uptake at 24 h ([4]; liver, read-out: liver % ID/g)?
The tissue uptake at 24 h was 0.1 %ID/g.

And the tissue uptake at 8 h ([4]; liver, read-out: liver % ID/g)?
Its tissue uptake at 8 h is 0.71 %ID/g.

What about the tissue uptake at 12 h ([4]; liver, read-out: liver % ID/g) of the same compound?
Its tissue uptake at 12 h is 0.3 %ID/g.

And the tissue uptake at 1 h ([4]; lungs, read-out: lungs % ID/g)?
Its tissue uptake at 1 h is 6.88 %ID/g.

What about the tissue uptake at 2 h ([4]; lungs, read-out: lungs % ID/g) of the same compound?
The tissue uptake at 2 h was 5.63 %ID/g.

And the tissue uptake at 4 h ([4]; lungs, read-out: lungs % ID/g)?
The tissue uptake at 4 h was 2.84 %ID/g.

And the tissue uptake at 6 h ([4]; lungs, read-out: lungs % ID/g)?
The tissue uptake at 6 h was 0.76 %ID/g.

And the tissue uptake at 8 h ([4]; lungs, read-out: lungs % ID/g)?
The tissue uptake at 8 h was 0.45 %ID/g.

What about the tissue uptake at 12 h ([4]; lungs, read-out: lungs % ID/g) of the same compound?
The tissue uptake at 12 h was 0.11 %ID/g.
